Laboratory results reported in ChEMBL document CHEMBL3045208, “Synthesis and Inhibitory Effect on Photosynthetic Electron Transport of 1,3,5-Triazinylcarboxylic Acid Derivatives” (J Pestic Sci, 2005).

Legend:
[1] = molecular target: Photosystem II protein D1 (Spinacia oleracea, UniProt P69560); test: Inhibition of photosynthetic electron transport protein complex in Spinacia oleracea (spinach) leaf thylakoid
[2] = molecular target: Chloroplast thylakoid membrane protein (psbA) (Chenopodium album) (UniProt Q31945); test: Selectivity ratio of I50 for photosynthetic electron transport protein complex in atrazine-resistant Chenopodium album thylakoid to I50 for photosynthetic electron transport protein complex in wild type Chenopodium album thylakoid
[3] = Inhibition of photosynthetic electron transport protein complex in Spinacia oleracea (spinach) leaf thylakoid

Sequence of Chloroplast thylakoid membrane protein (psbA) (Chenopodium album) (Q31945 1-69): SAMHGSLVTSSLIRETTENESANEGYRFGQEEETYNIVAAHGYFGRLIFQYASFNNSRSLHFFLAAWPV

Row | SMILES | pI50 [1] | Selectivity ratio [2] | pI50 [3]
1 | CCOC(=O)c1nc(C)nc(NC(C)C)n1 | 6.11 | 2.45 | 
2 | CCOC(=O)c1nc(C)nc(NC(C)CC)n1 (centres undefined) | 4.37 |  | 
3 | COC(=O)c1nc(C)nc(NCc2ccccc2)n1 | 4 |  | 
4 | Cc1nc(CF)nc(NCc2ccccc2)n1 |  |  | 4.98
5 | Cc1nc(NCc2ccccc2)nc(C(F)(F)F)n1 |  | 2.6 | 6.85
6 | CCNc1nc(Cl)nc(NC(C)C)n1 [ATRAZINE] |  | 324 | 6.73
7 | CCOC(=O)c1nc(C)nc(NCc2ccccc2)n1 | 4.88 | 0.98 | 
8 | Cc1nc(NCc2ccccc2)nc(C(F)F)n1 |  | 2.5 | 5.63
9 | C#CCNc1nc(C)nc(C(=O)OCC)n1 |  | 1.23 | 
